{"source": "paper doi:10.1101/2021.04.08.439011v1", "about": "(biorxiv, 2021)", "assay_in_all_cases": "biochemical", "settings_in_all_cases": "read-out: Residual activity", "key": {"[1]": {"molecular_target": "TTBK1 (Homo sapiens, UniProt Q5TCY1)", "sequence (Q5TCY1 whole entry)": "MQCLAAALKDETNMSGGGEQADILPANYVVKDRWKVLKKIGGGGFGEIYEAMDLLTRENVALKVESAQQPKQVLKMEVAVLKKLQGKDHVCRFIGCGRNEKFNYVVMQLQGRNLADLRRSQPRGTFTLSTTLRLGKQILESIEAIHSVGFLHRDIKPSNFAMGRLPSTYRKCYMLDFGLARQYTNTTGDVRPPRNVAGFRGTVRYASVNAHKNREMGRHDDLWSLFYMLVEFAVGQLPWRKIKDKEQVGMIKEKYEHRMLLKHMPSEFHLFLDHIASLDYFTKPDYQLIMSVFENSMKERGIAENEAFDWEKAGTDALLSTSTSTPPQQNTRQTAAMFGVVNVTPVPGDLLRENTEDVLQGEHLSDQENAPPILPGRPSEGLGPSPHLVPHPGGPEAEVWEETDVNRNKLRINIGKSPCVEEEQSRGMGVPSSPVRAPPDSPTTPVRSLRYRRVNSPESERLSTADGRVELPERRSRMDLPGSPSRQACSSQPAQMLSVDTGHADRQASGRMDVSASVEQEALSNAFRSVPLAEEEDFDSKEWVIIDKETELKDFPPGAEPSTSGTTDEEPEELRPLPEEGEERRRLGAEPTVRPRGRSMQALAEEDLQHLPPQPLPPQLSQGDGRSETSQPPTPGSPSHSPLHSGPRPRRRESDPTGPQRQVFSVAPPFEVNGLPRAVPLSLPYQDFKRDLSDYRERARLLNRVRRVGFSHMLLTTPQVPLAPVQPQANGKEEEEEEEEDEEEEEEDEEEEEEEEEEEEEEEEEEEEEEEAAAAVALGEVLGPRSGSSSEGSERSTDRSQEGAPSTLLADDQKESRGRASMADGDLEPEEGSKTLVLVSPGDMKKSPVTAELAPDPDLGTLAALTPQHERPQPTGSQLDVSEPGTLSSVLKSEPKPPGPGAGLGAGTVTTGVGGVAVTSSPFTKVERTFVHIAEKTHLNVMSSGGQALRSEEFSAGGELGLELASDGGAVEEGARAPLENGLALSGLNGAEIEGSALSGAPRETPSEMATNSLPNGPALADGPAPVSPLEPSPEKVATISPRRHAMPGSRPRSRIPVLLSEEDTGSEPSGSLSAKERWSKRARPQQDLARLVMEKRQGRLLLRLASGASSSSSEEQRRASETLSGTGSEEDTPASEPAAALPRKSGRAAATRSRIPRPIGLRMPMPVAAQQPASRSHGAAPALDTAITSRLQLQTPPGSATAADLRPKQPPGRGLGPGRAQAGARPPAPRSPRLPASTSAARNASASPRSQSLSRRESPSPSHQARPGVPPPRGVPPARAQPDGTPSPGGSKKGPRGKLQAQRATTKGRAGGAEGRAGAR"}, "[2]": {"molecular_target": "STK33 (Homo sapiens, UniProt Q9BYT3)", "sequence (Q9BYT3 whole entry)": "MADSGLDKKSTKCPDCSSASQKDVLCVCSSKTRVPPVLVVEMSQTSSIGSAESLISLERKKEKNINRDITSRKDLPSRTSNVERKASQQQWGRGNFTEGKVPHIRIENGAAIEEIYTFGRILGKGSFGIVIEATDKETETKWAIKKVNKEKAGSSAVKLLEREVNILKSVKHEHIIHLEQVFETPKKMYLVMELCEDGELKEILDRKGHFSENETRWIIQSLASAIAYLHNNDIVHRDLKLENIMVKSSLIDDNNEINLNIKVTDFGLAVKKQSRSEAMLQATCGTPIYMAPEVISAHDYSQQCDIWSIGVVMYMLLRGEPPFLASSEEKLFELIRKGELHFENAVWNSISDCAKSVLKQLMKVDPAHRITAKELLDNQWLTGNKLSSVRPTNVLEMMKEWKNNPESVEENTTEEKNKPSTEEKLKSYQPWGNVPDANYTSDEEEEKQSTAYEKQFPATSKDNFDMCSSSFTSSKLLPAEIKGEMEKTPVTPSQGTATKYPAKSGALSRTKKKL"}, "[3]": {"molecular_target": "DYRK1B (Homo sapiens, UniProt Q9Y463)", "sequence (Q9Y463 whole entry)": "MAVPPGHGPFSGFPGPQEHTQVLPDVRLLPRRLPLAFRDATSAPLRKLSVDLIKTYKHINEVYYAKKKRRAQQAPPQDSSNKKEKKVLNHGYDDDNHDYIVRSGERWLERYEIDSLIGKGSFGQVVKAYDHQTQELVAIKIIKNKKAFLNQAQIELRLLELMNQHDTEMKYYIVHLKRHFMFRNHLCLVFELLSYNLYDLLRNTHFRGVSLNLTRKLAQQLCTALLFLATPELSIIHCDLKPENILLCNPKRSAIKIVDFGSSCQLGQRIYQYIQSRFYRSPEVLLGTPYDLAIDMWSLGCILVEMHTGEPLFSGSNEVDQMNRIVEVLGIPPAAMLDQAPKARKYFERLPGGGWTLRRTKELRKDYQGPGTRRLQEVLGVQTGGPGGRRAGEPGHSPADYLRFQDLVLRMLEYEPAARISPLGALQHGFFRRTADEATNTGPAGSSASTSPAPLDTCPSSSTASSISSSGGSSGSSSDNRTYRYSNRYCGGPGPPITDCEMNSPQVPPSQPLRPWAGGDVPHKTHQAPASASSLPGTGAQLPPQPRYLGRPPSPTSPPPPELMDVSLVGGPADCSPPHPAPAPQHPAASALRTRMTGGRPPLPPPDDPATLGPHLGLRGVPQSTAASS"}, "[4]": {"molecular_target": "LTK (Homo sapiens, UniProt P29376)", "sequence (P29376 whole entry)": "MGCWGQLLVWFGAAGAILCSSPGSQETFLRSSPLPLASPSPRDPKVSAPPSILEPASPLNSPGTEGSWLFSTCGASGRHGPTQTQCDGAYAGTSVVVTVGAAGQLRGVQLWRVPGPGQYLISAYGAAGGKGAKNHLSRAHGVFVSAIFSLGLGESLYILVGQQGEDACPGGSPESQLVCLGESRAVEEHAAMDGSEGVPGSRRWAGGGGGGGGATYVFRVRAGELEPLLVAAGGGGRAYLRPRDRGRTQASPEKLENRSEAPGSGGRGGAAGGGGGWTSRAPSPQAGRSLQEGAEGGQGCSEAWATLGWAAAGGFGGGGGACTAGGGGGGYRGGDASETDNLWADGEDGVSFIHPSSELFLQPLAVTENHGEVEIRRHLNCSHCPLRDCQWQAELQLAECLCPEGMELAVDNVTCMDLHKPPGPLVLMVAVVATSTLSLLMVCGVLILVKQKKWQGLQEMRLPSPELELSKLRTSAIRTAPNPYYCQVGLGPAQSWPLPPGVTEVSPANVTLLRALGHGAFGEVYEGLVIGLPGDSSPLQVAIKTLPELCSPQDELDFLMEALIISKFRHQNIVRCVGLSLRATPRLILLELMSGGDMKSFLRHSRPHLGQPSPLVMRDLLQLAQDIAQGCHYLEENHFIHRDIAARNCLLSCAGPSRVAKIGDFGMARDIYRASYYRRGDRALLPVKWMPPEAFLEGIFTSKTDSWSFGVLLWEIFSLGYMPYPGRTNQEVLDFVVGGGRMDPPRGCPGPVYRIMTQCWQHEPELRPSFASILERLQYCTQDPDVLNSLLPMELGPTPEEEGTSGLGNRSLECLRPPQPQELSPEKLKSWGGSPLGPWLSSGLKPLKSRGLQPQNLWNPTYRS"}}}
{"smiles": "CNc1ncc2cc(-c3ccc(-c4ncccc4F)cc3Cl)c(=O)n(CC3OCC(N)CO3)c2n1", "note": "(stereo not shown) [compound 10, 8-(((2r,5r)-5-Amino-1,3-dioxan-2-yl)methyl)-6-(2-chloro-4-(3-fluoropyridin-2-yl)phenyl)-2-(methylamino)pyrido[2,3-d]pyrimidin-7(8H)-one]", "values": [{"measurement": "remaining activity at 1 µM", "setting": "[1]", "result": 131, "unit": "%"}, {"measurement": "remaining activity at 1 µM", "setting": "[2]", "result": 89, "unit": "%"}, {"measurement": "remaining activity at 1 µM", "setting": "[3]", "result": 98, "unit": "%"}, {"measurement": "remaining activity at 1 µM", "setting": "[4]", "result": 105, "unit": "%"}]}
